From patent US4057644A, “Active derivatives of methylamine in therapeutic compositions and methods of use” (priority 1976, dated 1977)

Key:
[1] = test system: neuroleptic-induced catatonia (prochlorperazine); assay: Inhibition of neuroleptic-induced catatonia; format: in vivo, rat (male, OFA strain); details: rat, oral; for activity compared with amantadine (neuroleptic-induced catatonia): versus amantadine
Protocol: The blocking of dopaminergic receptors by neuroleptics in the extra-pyramidal system induces catatonia in the rat. Catatonia is differentiated from sedative properties by means of the test used hereabove for reserpine-induced catatonia. The same system of scoring was also employed in the present case.
An oral dose of the compound to be studied in aqueous solution was administered to batches of 10 male rats of the OFA strain weighing about 150 to 200 g.
Three hours after the injection of this latter compound, catatonia was measured. An identical trial was also carried out with control animals which received prochlorperazine but none of the compounds under study.

[2] = test system: mice; details: for Index LD50/ED20-30: LD50 mice oral / dose giving 20 to 30% inhibition of catatonia; for Index LD50/ED100: LD50 mice oral / dose giving 100% inhibition of catatonia
[3] = test system: reserpine-induced catatonia; assay: Inhibition of reserpine-induced catatonia; format: in vivo, rat (male, OFA strain); details: rat, oral
Protocol: Ater sufficient doses of reserpine have been administered to the rat, a series of symptoms occur, more particularly ptosis, catatonia and a drop in central temperature. These symptoms are caused by the depletion of the intrangranular reserve pool of biogenetic amines at the synaptic terminals.
An oral dose of the compound to be studied in aqueous solution was administered to batches of 10 male rats of the OFA strain weighing about 150 to 200 g. Thirty minutes later a dose of 5 mg/kg of reserpine was given by intraperitoneal route. Three hours after the injection of reserpine, the animals were suspended by the four paws to a horizontally stretched wire fixed at 15 cm from the ground. The catatonic animals were those which maintained the position so given for at least 30 seconds. […] The maximum score was therefore 10 per batch. An identical trial was undertaken with control animals which received reserpine but none of the compounds being studied.

[4] = J. Amer. Chem. Soc., 71, 3352 (1949); cited from earlier work
[5] = J. Amer. Chem. Soc., 71, 3352 (1949); cited from earlier work; remark: listed apart in the source
[6] = in vivo; details: mouse, po
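Wherever Index LD50/ED100 is given: LD50 part of every column derived from compounds dosed in aqueous solution, deaths followed over a 10-day observation period after dosing.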
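Wherever Index LD50/ED20-30 is given: LD50 part of every column derived from compounds dosed in aqueous solution, deaths followed over a 10-day observation period after dosing.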
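Wherever LD50 is given: LD50 part of every column derived from compounds dosed in aqueous solution, deaths followed over a 10-day observation period after dosing.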

SMILES | Index LD50/ED20-30 [2] | LD50 at 240 h [6] [mg/kg] | Index LD50/ED100 [2] | further results
CCCC(N)(CC)CCC [Compound 2, 1-Ethyl-1-n-propyl-n-butylamine] | 30 | – | – | Inhibition of the neuroleptic-induced catatonia ([1]; 5 mg/kg): 1 (represents 20 to 30% inhibition of catatonia in comparison with the controls (namely a score of 7 to 8 per studied batch))
CCCC(N)(CC)CC(C)C (centres unmarked) [Compound 3, 1-Ethyl-1-isobutyl-n-butylamine] | – | – | – | Inhibition of the neuroleptic-induced catatonia ([1]; 20 mg/kg): 3 (represents 70 to 80% inhibition of catatonia in comparison with the controls (namely a score of 2 or 3 per studied batch))
CCCC(N)(CCC)CC(C)C [Compound 5, 1-n-Propyl-1-isobutyl-n-butylamine] | – | – | – | activity compared with amantadine (neuroleptic-induced catatonia) [1]: five times more active; Inhibition of reserpine-induced catatonia ([3]; 20 mg/kg): 2 (represents 50% inhibition of catatonia in comparison with the controls (namely a score of 5 per studied batch))
CCCC(C)(N)CC(C)CC (centres unmarked) [Compound 6, 1,3-Dimethyl-1-n-propyl-n-pentylamine] | > 25 | – | – | –
CCCCC(C)(N)CC(C)C (centres unmarked) [Compound 8, 1-Methyl-1-isobutyl-n-pentylamine] | – | – | – | activity compared with amantadine (neuroleptic-induced catatonia) [1]: twice as active
CCCCCC(C)(N)CCC (centres unmarked) [Compound 9, 1-Methyl-1-n-propyl-n-hexylamine] | 87 | – | – | –
CCCCC(N)(CCCC)CCCC [Compound 12, 1,1-Di-n-butyl-n-pentylamine] | 25 | – | – | toxicity versus the corresponding trialkylethylamines [4]: more toxic; spasmolytic activity versus the corresponding trialkylethylamines [5]: less spasmolytic
CCCC(CCC)(CCC)NC [Compound 27, N-methyl-1,1-di-n-propyl-n-butylamine] | – | 100 | 16.5 | Inhibition of the neuroleptic-induced catatonia ([1]; 6 mg/kg): 3 (represents 70 to 80% inhibition of catatonia in comparison with the controls (namely a score of 2 or 3 per studied batch))
CCCC(CCC)(CCC)N1CCC1 [Compound 29, N,n-trimethylene-1,1-di-n-propyl-n-butylamine] | – | 65 | 10.8 | –
CCCC(CCC)(NC)C(C)C [Compound 30, N-methyl-1-n-propyl-1-isopropyl-n-butylamine] | – | > 150 | > 25 | Inhibition of the neuroleptic-induced catatonia ([1]; 6 mg/kg): 3 (represents 70 to 80% inhibition of catatonia in comparison with the controls (namely a score of 2 or 3 per studied batch))
C=CCC(CCC)(CCC)NC [Compound 32, N-methyl-1-n-propyl-1-alkyl-n-butylamine] | – | 170 | – | Inhibition of reserpine-induced catatonia ([3]; 5 mg/kg): 2 (represents 50% inhibition of catatonia in comparison with the controls (namely a score of 5 per studied batch))
CCCC(CCC)(CCC)NCC [Compound 33, N-ethyl-1,1-di-n-propyl-n-butylamine] | – | 100 | 16.5 | Inhibition of reserpine-induced catatonia ([3]; 6 mg/kg): 2 (represents 50% inhibition of catatonia in comparison with the controls (namely a score of 5 per studied batch))
CCCC(CCC)(CCC)NC(C)C [Compound 34, N-isopropyl-1,1-di-n-propyl-n-butylamine] | – | – | 21.6 | Inhibition of reserpine-induced catatonia ([3]; 6.5 mg/kg): 2 (represents 50% inhibition of catatonia in comparison with the controls (namely a score of 5 per studied batch))
C=CCNC(CCC)(CCC)CCC [Compound 35, N-allyl-1,1-di-n-propyl-n-butylamine] | – | 130 | 21 | Inhibition of reserpine-induced catatonia ([3]; 6 mg/kg): 2 (represents 50% inhibition of catatonia in comparison with the controls (namely a score of 5 per studied batch))
C#CCNC(CCC)(CCC)CCC [Compound 36, N-propargyl-1,1-di-n-propyl-n-butylamine] | > 25 | > 150 | – | –
CCCC(CCC)(CC(C)C)N(C)C [Compound 37, N,n-dimethyl-1-n-propyl-1-isobutyl-n-butylamine] | – | 110 | – | –
CCCC(CCC)(CCC)N(C)CC [Compound 38, N-methyl-N-ethyl-1,1-di-n-propyl-n-butylamine] | – | > 120 | – | Inhibition of reserpine-induced catatonia ([3]; 6.5 mg/kg): 2 (represents 50% inhibition of catatonia in comparison with the controls (namely a score of 5 per studied batch))
C#CCN(CC#C)C(CCC)(CCC)CCC [Compound 39, N,n-dipropargyl-1,1-di-n-propyl-n-butylamine] | – | > 150 | – | Inhibition of reserpine-induced catatonia ([3]; 15 mg/kg): 2 (represents 50% inhibition of catatonia in comparison with the controls (namely a score of 5 per studied batch))
CCCC(CCC)(CCC)N1CC1 [Compound 40, N,n-ethylene-1,1-di-n-propyl-n-butylamine] | > 25 | > 150 | – | Inhibition of the neuroleptic-induced catatonia ([1]; 6 mg/kg): 1 (represents 20 to 30% inhibition of catatonia in comparison with the controls (namely a score of 7 to 8 per studied batch)); Inhibition of the neuroleptic-induced catatonia ([1]; 12 mg/kg): 3 (represents 70 to 80% inhibition of catatonia in comparison with the controls (namely a score of 2 or 3 per studied batch)); Inhibition of reserpine-induced catatonia ([3]; 6 mg/kg): 2 (represents 50% inhibition of catatonia in comparison with the controls (namely a score of 5 per studied batch))
C=NC(CCC)(CCC)CCC [Compound 41] | – | > 150 | 27 | –
CC=NC(CCC)(CCC)CCC [Compound 42, N-ethylidene-1,1-di-n-propyl-n-butylamine] | – | 120 | 20 | –
CCCC(CCC)(CCC)NCCO [Compound 43, N-(2-hydroxyethyl)-1,1-di-n-propyl-n-butylamine] | 23 | 150 | – | Inhibition of the neuroleptic-induced catatonia ([1]; 6.5 mg/kg): 1 (represents 20 to 30% inhibition of catatonia in comparison with the controls (namely a score of 7 to 8 per studied batch))
CCCC(CCC)(CCC)N(CCO)CCO [Compound 44, N,n-bis-(2-Hydroxyethyl)-1,1-di-n-propyl-n-butylamine] | – | – | – | Inhibition of the neuroleptic-induced catatonia ([1]; 15 mg/kg): 1 (represents 20 to 30% inhibition of catatonia in comparison with the controls (namely a score of 7 to 8 per studied batch))
CCCC(CCC)(CCC)NCCCO [Compound 45, N-(3-hydroxy-n-propyl)-1,1-di-n-propyl-n-butylamine] | – | 140 | – | Inhibition of reserpine-induced catatonia ([3]; 14 mg/kg): 2 (represents 50% inhibition of catatonia in comparison with the controls (namely a score of 5 per studied batch))
CCCC(CCC)(CCC)N1CCOCC1 [Compound 46, N,n-(3-oxyapentamethylene)-1,1-di-n-propyl-n-butylamine] | 31 | 250 | – | –
